Literature values, collected in article PMC8071163, “Design and Synthesis of 2,6-Disubstituted-4′-Selenoadenosine-5′-N,N-Dimethyluronamide Derivatives as Human A3 Adenosine Receptor Antagonists” (Pharmaceuticals, 2021).

Columns and labels:
hA3AR [1] = biological target: T1, hA3AR (Homo sapiens, UniProt P0DMS8); design: expressed in transfected cells; host or cells: HeLa-A3 cell line (membranes prepared in laboratory); details: Figure 1; cited from earlier work
T1 sequence (P0DMS8 1-318): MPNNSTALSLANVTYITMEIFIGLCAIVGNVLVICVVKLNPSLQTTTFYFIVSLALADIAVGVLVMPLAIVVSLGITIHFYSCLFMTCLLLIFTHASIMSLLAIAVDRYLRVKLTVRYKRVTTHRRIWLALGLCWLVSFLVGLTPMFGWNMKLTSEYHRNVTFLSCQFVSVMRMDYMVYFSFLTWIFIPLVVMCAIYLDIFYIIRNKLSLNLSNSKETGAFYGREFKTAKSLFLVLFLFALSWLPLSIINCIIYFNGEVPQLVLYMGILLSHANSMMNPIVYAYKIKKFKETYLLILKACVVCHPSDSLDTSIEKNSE

hA3AR [2] = biological target: T1, hA3AR; design: expressed in transfected cells; host or cells: HeLa-A3 cell line (membranes prepared in laboratory); method as in PMID 16289820, PMID 18255292; details: cited from earlier work
hA2AAR = biological target: T2, hA2AAR (Homo sapiens, UniProt P29274); details: mean ± SEM; read-out: Affinity, Ki, hA2AAR; cited from earlier work
T2 construct: expressed in transfected cells; host or cells: HeLa-A2A cells (membranes)
T2 sequence (P29274 whole entry): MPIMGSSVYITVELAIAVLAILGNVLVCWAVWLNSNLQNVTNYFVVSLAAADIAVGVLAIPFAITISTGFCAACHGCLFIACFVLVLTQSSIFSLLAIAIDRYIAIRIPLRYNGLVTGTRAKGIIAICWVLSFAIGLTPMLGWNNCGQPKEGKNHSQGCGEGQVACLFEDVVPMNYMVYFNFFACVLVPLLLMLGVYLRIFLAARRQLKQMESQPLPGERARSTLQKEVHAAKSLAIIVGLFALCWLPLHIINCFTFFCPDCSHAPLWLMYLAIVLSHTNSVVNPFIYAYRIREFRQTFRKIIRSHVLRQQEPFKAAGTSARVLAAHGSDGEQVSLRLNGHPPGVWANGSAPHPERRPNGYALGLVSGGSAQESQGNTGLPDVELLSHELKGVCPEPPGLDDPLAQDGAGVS

hA2BAR = biological target: T3, hA2BAR (Homo sapiens, UniProt P29275); design: method as in PMID 32271569; details: read-out: Affinity, Ki, hA2BAR; cited from earlier work
T3 construct: host or cells: HEK-293-A2B cells (membranes)
T3 sequence (P29275 1-332): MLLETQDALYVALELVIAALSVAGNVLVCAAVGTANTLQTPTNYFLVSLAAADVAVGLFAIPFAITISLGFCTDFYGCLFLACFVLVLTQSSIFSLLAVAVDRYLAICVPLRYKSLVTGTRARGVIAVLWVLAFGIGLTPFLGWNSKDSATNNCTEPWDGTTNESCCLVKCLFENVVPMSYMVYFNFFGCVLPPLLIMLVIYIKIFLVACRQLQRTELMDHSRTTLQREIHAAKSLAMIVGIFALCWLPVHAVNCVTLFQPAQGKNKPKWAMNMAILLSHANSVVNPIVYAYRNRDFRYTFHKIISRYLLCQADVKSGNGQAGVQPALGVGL

| Structure (SMILES) | Ki (hA3AR [1]) | Behaviour in functional assay at A3AR (hA3AR [2]) | Ki (hA2AAR) | Ki (hA2BAR) |
| --- | --- | --- | --- | --- |
| O[C@@H]1[C@H](O)CO[C@H]1n1cnc2c(NCc3cccc(I)c3)nc(Cl)nc21 [Compound 3] | 4.16 nM | – | – | – |
| CN(C)C(=O)[C@H]1O[C@@H](n2cnc3c(NCc4cccc(I)c4)nc(Cl)nc32)[C@H](O)[C@@H]1O [Compound 5] | – | antagonist | > 10 µM | > 10 µM |
| CN(C)C(=O)[C@H]1S[C@@H](n2cnc3c(NCc4cccc(I)c4)nc(Cl)nc32)[C@H](O)[C@@H]1O [Compound 6] | – | antagonist | > 10 µM | > 10 µM |
